From patent US6403625B1, “Fluorescent labeling reagents” (Daiichi Pure Chemicals Co., Ltd., priority 1998, dated 2002)

How the values were obtained:
[1] = UV-vis absorption spectrum; assay type: physicochemical; conditions: Table 2
Description: All the melting points were measured with a Yanagimoto-Micro apparatus and were not corrected. Nuclear magnetic resonance (^1H-NMR) spectrum of a protein was recorded by using a spectrometer, JEOL-FX-200 or JEOL-GSX-400. Chemical shifts were indicated as δ values (ppm) using tetramethylsilane as the internal standard. The fast atom bombardment mass spectrometric analysis (FAB) or the electron ionization mass spectrometric analysis (El) was performed by using a JEOL-SX-102A apparatus. […] The UV-vis spectrum was measured by using a Beckmann's 650-40 spectrometer. The fluorescence spectrum was recorded with a Hitachi's 650-40 luminescence spectrometer. […]
A DMF solution (250 μl ) of compound (6) of the present invention obtained in Example 1 (3.7 μmol/ml) was added to a 0.1 M phosphate buffer solution (pH 7.5, 1 ml) of BSA (2 mg). […] Then, the aqueous layer containing the labeled protein and the ethyl acetate layer were subjected to UV-vis and fluorescence analyses.
As a result, the ratios of the fluorescent substance in the aqueous layer and the ethyl acetate layer were 44% in BSA and 69% in IgG. The protein concentration in the labeled protein was measured by using a protein assay kit (Bio-Rad, CA), and the total ICG concentration in the labeled protein was determined from the absorbance (789 nm) of the DMF solution and the ε value of the ICD derivative. […]

[2] = Fluorescence spectrum (excitation/emission); assay type: physicochemical
Description: All the melting points were measured with a Yanagimoto-Micro apparatus and were not corrected. Nuclear magnetic resonance (^1H-NMR) spectrum of a protein was recorded by using a spectrometer, JEOL-FX-200 or JEOL-GSX-400. Chemical shifts were indicated as δ values (ppm) using tetramethylsilane as the internal standard. The fast atom bombardment mass spectrometric analysis (FAB) or the electron ionization mass spectrometric analysis (El) was performed by using a JEOL-SX-102A apparatus. […] The UV-vis spectrum was measured by using a Beckmann's 650-40 spectrometer. The fluorescence spectrum was recorded with a Hitachi's 650-40 luminescence spectrometer. The column chromatography was performed by using Merck's Silica Gel 60 (70-230 mesh). The compound numbers in Examples correspond to those in the aforementioned scheme.
A DMF solution (250 μl ) of compound (6) of the present invention obtained in Example 1 (3.7 μmol/ml) was added to a 0.1 M phosphate buffer solution (pH 7.5, 1 ml) of BSA (2 mg). The reaction mixture was allowed to stand for 30 minutes and subjected to Sephadex LH-20 column chromatography (1.5 cm×50 cm), and then eluted with a 0.1 M phosphate buffer solution (pH 7.5) to obtain a fraction of ICG-labeled protein. For IgG (2 mg), the labeling reaction with a DMF solution (250 μl) of ICG-ATT (6) (3.7 μmol/ml) was carried out in a similar manner to the above by using 0.1 M carbonate buffer (pH 9.5) instead of 0.1 M phosphate buffer (pH 7.5). The 0.1 M phosphate or the carbonate buffer solution (1 ml), containing the ICG-labeled protein (BSA or IgG) obtained by the Sephadex LH-20 column chromatography, was added to ethyl acetate (1 ml), and the mixture was vigorously stirred for 30 minutes to remove fluorescent compounds which bound to the protein through noncovalent bond. Then, the aqueous layer containing the labeled protein and the ethyl acetate layer were subjected to UV-vis and fluorescence analyses.
As a result, the ratios of the fluorescent substance in the aqueous layer and the ethyl acetate layer were 44% in BSA and 69% in IgG. The protein concentration in the labeled protein was measured by using a protein assay kit (Bio-Rad, CA), and the total ICG concentration in the labeled protein was determined from the absorbance (789 nm) of the DMF solution and the ε value of the ICD derivative. The ratios of ICG versus protein (ICG/protein) in each ICG-labeled protein were 21.5 (BSA) and 23.6 (IgG). […] From the foregoing results, it is readily understood that the compounds of the present invention are useful as near infrared fluorescent labeling agents for proteins and oligopeptides.

CCN1C(=CC=CC=CC=CC2=[N+](CCCCCC(=O)N3CCSC3=S)c3ccc4ccccc4c3C2(C)C)C(C)(C)c2c1ccc1ccccc21.[Cl-] [ICG-ATT (6), 2-[7-(1,3-Dihydro-1,1-dimethyl-3-ethylbenz[e]indolin-2-ylidene)-1,3,5-heptatrienyl]-1,1-dimethyl-3-[[6-[(1,3-thiazolidine-2-thion)-1-yl]-6-oxo]hexyl]-1H-benz[e]indolium Chloride]
UV-vis abs (λmax) [1]: 789 nm
λ em ([2]; DMF): 830 nm
λ ex ([2]; DMF): 765 nm
fluorescent λem ([2]; Table 2): 830 nm
fluorescent λex ([2]; Table 2): 765 nm
